# Earlier results, collected in patent publication EP0984012A2, “Nitric oxide releasing oxindole prodrugs with analgesic and anti-inflammatory properties” (Pfizer Products Inc., priority 1998, dated 2000).
# What was measured:
# [1] = tested on: experimental gastric ulcers; details: rat, daily treatment
# [2] = animal models of acute and chronic inflammation; versus parent NSAID
# [3] = administered on both an acute and a chronic basis; versus parent NSAID
Compound,healing of experimental gastric ulcers [1],anti-inflammatory activity [2],gastric injury [3],mitochondrial damage (small intestine; in vivo),"macroscopic damage in the small intestine (small intestine; rats, versus flurbiprofen)"
O=C(O)Cc1ccccc1Nc1c(Cl)cccc1Cl [diclofenac],no effect,–,–,–,–
CC(C(=O)OCCCCO[N+](=O)[O-])c1ccc(-c2ccccc2)c(F)c1 (stereo not drawn) [flurbiprofen nitroxybutylester],–,comparable to that of their parent NSAIDs,markedly less gastric injury than that produced by their parent NSAIDs,associated with mitochondrial damage in vivo,significantly less macroscopic damage in the small intestine than flurbiprofen
O=[N+]([O-])OCC(CO[N+](=O)[O-])O[N+](=O)[O-] [glyceryl trinitrate],accelerated,–,–,–,–
CC(C(=O)OCCCCO[N+](=O)[O-])c1cccc(C(=O)c2ccccc2)c1 (stereo not drawn) [ketoprofen nitroxybutylester],–,comparable to that of their parent NSAIDs,markedly less gastric injury than that produced by their parent NSAIDs,–,–
COc1ccc2cc(CCC(C)=O)ccc2c1 [nabumetone],no effect,–,–,–,–
"O=C(Cc1ccccc1Nc1c(Cl)cccc1Cl)OCCCCO[N+](=O)[O-] [nitrofenac, diclofenac-4-nitroxybutylester]",accelerated,comparable to that of their parent NSAIDs,markedly less gastric injury than that produced by their parent NSAIDs,–,–
